Assay: xn = mol fraction of the nth substance listed
Settings: 101 kPa, Liquid, Taylor dispersion method, x1 = 0

C[C@H](N)C(=O)O [(S)-2-aminopropanoic acid] + O
binary diffusion coefficient (293.2 K): 8.06e-10 m2/s | binary diffusion coefficient (298.2 K): 9.3e-10 m2/s | binary diffusion coefficient (303.2 K): 1.04e-09 m2/s | binary diffusion coefficient (313.2 K): 1.31e-09 m2/s | binary diffusion coefficient (323.2 K): 1.63e-09 m2/s | binary diffusion coefficient (333.2 K): 1.96e-09 m2/s

CCCCC(N)C(=O)O (stereo not given) [2-aminohexanoic acid] + O
binary diffusion coefficient (293.2 K): 6.41e-10 m2/s | binary diffusion coefficient (298.2 K): 7.36e-10 m2/s | binary diffusion coefficient (303.2 K): 8.27e-10 m2/s | binary diffusion coefficient (313.2 K): 1.07e-09 m2/s | binary diffusion coefficient (323.2 K): 1.32e-09 m2/s | binary diffusion coefficient (333.2 K): 1.6e-09 m2/s

CC[C@@H](C)[C@H](N)C(=O)O [allo-L-isoleucine] + O
binary diffusion coefficient (293.2 K): 6.42e-10 m2/s | binary diffusion coefficient (298.2 K): 7.38e-10 m2/s | binary diffusion coefficient (303.2 K): 8.44e-10 m2/s | binary diffusion coefficient (313.2 K): 1.07e-09 m2/s | binary diffusion coefficient (323.2 K): 1.33e-09 m2/s | binary diffusion coefficient (333.2 K): 1.61e-09 m2/s

CCC[C@H](N)C(=O)O [(S)-2-aminopentanoic acid] + O
binary diffusion coefficient (293.2 K): 6.77e-10 m2/s | binary diffusion coefficient (298.2 K): 7.75e-10 m2/s | binary diffusion coefficient (303.2 K): 8.79e-10 m2/s | binary diffusion coefficient (313.2 K): 1.12e-09 m2/s | binary diffusion coefficient (323.2 K): 1.39e-09 m2/s | binary diffusion coefficient (333.2 K): 1.69e-09 m2/s

CC(C)C[C@H](N)C(=O)O [L-leucine] + O
binary diffusion coefficient (293.2 K): 6.41e-10 m2/s | binary diffusion coefficient (298.2 K): 7.35e-10 m2/s | binary diffusion coefficient (303.2 K): 8.24e-10 m2/s | binary diffusion coefficient (313.2 K): 1.07e-09 m2/s | binary diffusion coefficient (323.2 K): 1.33e-09 m2/s | binary diffusion coefficient (333.2 K): 1.6e-09 m2/s

CCC(N)C(=O)O (stereo not drawn) [(.+-.)-α-aminobutyric acid] + O
binary diffusion coefficient (293.2 K): 7.29e-10 m2/s | binary diffusion coefficient (298.2 K): 8.39e-10 m2/s | binary diffusion coefficient (303.2 K): 9.48e-10 m2/s | binary diffusion coefficient (313.2 K): 1.2e-09 m2/s | binary diffusion coefficient (323.2 K): 1.49e-09 m2/s | binary diffusion coefficient (333.2 K): 1.8e-09 m2/s

CC[C@H](C)[C@H](N)C(=O)O [2-amino-3-methylpentanoic acid] + O
binary diffusion coefficient (293.2 K): 6.41e-10 m2/s | binary diffusion coefficient (298.2 K): 7.44e-10 m2/s | binary diffusion coefficient (303.2 K): 8.36e-10 m2/s | binary diffusion coefficient (313.2 K): 1.07e-09 m2/s | binary diffusion coefficient (323.2 K): 1.33e-09 m2/s | binary diffusion coefficient (333.2 K): 1.62e-09 m2/s

CC(C)(C)C(N)C(=O)O (stereo not drawn) [DL-tert-leucine] + O
binary diffusion coefficient (293.2 K): 6.31e-10 m2/s | binary diffusion coefficient (298.2 K): 7.29e-10 m2/s | binary diffusion coefficient (303.2 K): 8.46e-10 m2/s | binary diffusion coefficient (313.2 K): 1.06e-09 m2/s | binary diffusion coefficient (323.2 K): 1.33e-09 m2/s | binary diffusion coefficient (333.2 K): 1.61e-09 m2/s

CC(C)[C@H](N)C(=O)O [L-valine] + O
binary diffusion coefficient (293.2 K): 6.76e-10 m2/s | binary diffusion coefficient (298.2 K): 7.77e-10 m2/s | binary diffusion coefficient (303.2 K): 8.91e-10 m2/s | binary diffusion coefficient (313.2 K): 1.12e-09 m2/s | binary diffusion coefficient (323.2 K): 1.4e-09 m2/s | binary diffusion coefficient (333.2 K): 1.7e-09 m2/s

NCC(=O)O [2-aminoacetic acid] + O
binary diffusion coefficient (293.2 K): 9.36e-10 m2/s | binary diffusion coefficient (298.2 K): 1.06e-09 m2/s | binary diffusion coefficient (303.2 K): 1.22e-09 m2/s | binary diffusion coefficient (313.2 K): 1.5e-09 m2/s | binary diffusion coefficient (323.2 K): 1.86e-09 m2/s | binary diffusion coefficient (333.2 K): 2.22e-09 m2/s
